# Read-outs that look alike come from different tables or passages of the source.
# Legend:
# [1] = IP-One incubation stability (cell-treated stimulation medium, LC-MS); format: in vitro ADME; details: 2 μM, 60 min vs T0, 37° C., medium on CHO-K1 cells expressing 5-HT2A
# Procedure: IP-One incubation. CHO-K1 cells expressing recombinant Serotonin receptor 5-HT2A (Perkin Elmer, Waltham, MA), were seeded in 96-well plates (˜80,000 cells/well) and treated with 28 μL (per well) of stimulation medium (IP-One HTRF® kit) containing test compounds (2 μM) for 1 hr in a CO2 incubator (5%) at 37° C. The cell-treated medium from 3 wells were pooled together to provide 40 μL for LC-MS analysis. Aliquots for each compound were collected at time zero (T0, 100% intact test compound) and 60-min. The incubated medium (40 μL) was quenched with 120 μL of acetonitrile containing 0.5 μM glyburide (IS), and the supernatant was collected by centrifugation (2500 rpm, 15 min.). LC-MS was performed using an Agilent MSD (electrospray in positive ionization) equipped with a Kinetic C18 reverse-column. The percent of test compound remaining is calculated using the ratio of the peak areas of intact test compound at 60 min. over T0. The percent of psilocin release is calculated by comparing the peak area of psilocin at 60 min. (for test compound) vs. peak area at T0 (2 μM psilocin). Results are summarized in Table 1, (rel to % parent detected; and % psilocin detected at 1 hr).
# [2] = Stability in fasted state simulated gastric fluid (FaSSGF); format: in vitro ADME; details: 37° C., 60 min vs T0
# Procedure: Fasted state simulated gastric fluid (FaSSGF). FaSSGF was prepared according to the manufacturer instructions (Biorelevant, UK). Test compounds (2 μL of 200 μM solution) were added to a 96-well plate containing 198 μL FaSSGF per well. The mixture was incubation in a thermomixer at 37° C. for 60 min. Sample aliquots were removed (40 μL, from T0 and 60 min.) and quenched with acetonitrile containing 0.5 μM glyburide (IS), and the supernatant collected by centrifugation (2500 rpm, 15 min.). LC-MS was performed using an Agilent MSD (electrospray in positive ionization) equipped with a Kinetic C18 reverse-column. The percent of test compound remaining was calculated using the ratio of the peak area of intact test compound at 60 min. over T0. The percent of psilocin release was calculated by comparing the peak area of psilocin at 60 min, (for test compound) vs. peak area at T0 (2 μM psilocin).
# [3] = Single-dose oral pharmacokinetics in C57BL6 mice (plasma and brain); format: in vivo; details: for Cmax: read-out: Parent PK Cmax
# Procedure: The single-dose pharmacokinetics of test compounds were analyzed relative to control (psilocin) in C57BL6 mice via oral (PO) administration. Test compound was dissolved in DMSO and transferred to a 15-mL tube, followed by addition of Tween-80, PEG-400, and water to final volume. The resulting formulation (0.3 mg/mL compound, in DMSO (1%), Tween-80 (5%), and PEG-400 (25%) in water (69%)) was vortexed for 2 min. and mixed by inversion.
# Male C57BL6 mice (3× per compound, (at a weight ˜20g)) received a single dose (oral) of test compound at 3.0 mg/kg. Blood samples were collected pre-dose and at 0.083, 0.25, 0.5, 1, 2, 4, 8, 24-hour post-dose to yield approximately 20 μL of pooled plasma (3× mice) per time point. Brain tissues were collected at 2- and 8-hr post-dose. Brain was flushed with saline solution using a perfusion needle through the ascending aorta of the ventricle to remove any remaining blood prior to collection. Plasma and brain homogenate samples were stored at −80° C. prior to extraction for LC-MS/MS analysis.
# Samples were analyzed by LC-MS/MS to quantify the amounts of test compound and control (psilocin). The calculation of the pharmacokinetic (PK) parameters (AUCt, AUCinf, Cmax, Tmax, T1/2, and Kel) can be performed using a non-compartmental analysis (trapezoidal method).
# [4] = target: human serotonin 5HT2A receptor (Homo sapiens, UniProt P28223); assay: 5HT2A receptor radioligand displacement assay; parameters: key to the marks not given beside the values; details: displacement of [3H]-ketanserin or [3H]-LSD, HEK293 membranes
# [5] = male, C57BL6, mouse, parent compound in brain, 2 h post-dose, 3.0 mg/kg PO, read-out: Parent PK [brain] 2 h
# [6] = male, C57BL6, mouse, parent compound in plasma, 3.0 mg/kg PO
# Chain of human serotonin 5HT2A receptor (P28223 whole entry): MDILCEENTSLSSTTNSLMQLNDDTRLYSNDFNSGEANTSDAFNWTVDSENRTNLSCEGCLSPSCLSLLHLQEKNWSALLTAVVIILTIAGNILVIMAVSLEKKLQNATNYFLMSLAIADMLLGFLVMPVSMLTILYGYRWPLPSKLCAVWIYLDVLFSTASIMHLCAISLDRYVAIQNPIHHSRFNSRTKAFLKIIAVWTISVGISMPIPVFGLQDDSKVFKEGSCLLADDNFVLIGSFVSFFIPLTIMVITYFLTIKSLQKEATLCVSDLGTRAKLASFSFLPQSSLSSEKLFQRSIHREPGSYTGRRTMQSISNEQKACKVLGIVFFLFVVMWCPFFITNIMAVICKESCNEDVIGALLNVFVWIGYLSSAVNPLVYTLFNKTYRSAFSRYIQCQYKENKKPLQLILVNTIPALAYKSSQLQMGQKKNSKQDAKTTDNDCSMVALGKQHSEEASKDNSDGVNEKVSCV
SMILES,% parent compound [1] [%],% parent compound [2] [%],Activity relative to psilocin [4],also measured
"CN(C)CCc1c[nH]c2cccc(O)c12 [Psilocin, 4-hydroxy-N,N-dimethyltryptamine]",87.4,72.2,++,"psilocin in the brain at 8-h post-dose ([3]; 8-h post-dose): No psilocin in the brain was detected; psilocin plasma concentration (estimate) ([3]; estimate based on other pharmacokinetic data): ~5 ng/mL; concentration at 2 h ([3]; male, C57BL6, mouse, brain, oral, 3 mg/kg, 2-h post-dose, range over animals, read-out: Psilocin concentration in the brain): 40 to 78 ng/g; Kp at 2 h ([3]; male, C57BL6, mouse, brain, oral, 3 mg/kg, 2-h post-dose, with estimated plasma concentration of 5 ng/mL, read-out: mean brain/plasma (B/P) ratio): 11.2 ± 4.3; concentration at 2 h [3, 5]: 54 ng/mL; Cmax [3, 6]: ~5 ng/mL"
CN(C)CCc1c[nH]c2cccc(OC(=O)[C@H]3C[C@@H]3C(=O)Oc3cccc4[nH]cc(CCN(C)C)c34)c12 [drawing 62],–,–,+++,–
"CN(C)CCc1c[nH]c2cccc(OC(=O)C(C)(C)C(=O)Oc3cccc4[nH]cc(CCN(C)C)c34)c12 [Test Compound A, bis(3-(2-(dimethylamino)ethyl)-1H-indol-4-yl) 2,2-dimethylmalonate]",–,–,–,"PK profile (absorption, elimination) ([3]; 3.0 mg/kg PO, in words): quick absorption of the compound, but with a long elimination phase; brain penetration of the parent compound ([3]; 3.0 mg/kg PO, in words): delayed brain penetration of the parent compound; concentration at 2 h [3, 5]: 0.5 ng/mL; AUC ([3]; male, C57BL6, mouse, parent compound in plasma, 3.0 mg/kg PO, read-out: Parent PK AUC): 39 ng·h/mL; Cmax [3, 6]: 4.2 ng/mL; Parent [brain] at 8 h ([3]; parent compound in brain, 8 h post-dose (footnote)): **[brain] at 8 h is 6 ng/mL."
CN(C)CCc1c[nH]c2cccc(OC(=O)c3ccc(Br)cc3)c12 [drawing 50],–,93.8,–,–
CN(C)CCc1c[nH]c2cccc(OC(=O)c3cccc(C(=O)Oc4cccc5[nH]cc(CCN(C)C)c45)c3)c12 [drawing 45],52.1,–,–,–
CN(C)CCc1c[nH]c2cccc(OC(=O)C(C)(C)C(=O)Oc3cccc4[nH]cc(CCN(C)C)c34)c12 [drawing 51],–,94.7,–,–
CN(C)CCc1c[nH]c2cccc(OC(=O)c3cccc(C(=O)Oc4cccc5[nH]cc(CCN(C)C)c45)c3)c12 [drawing 61],–,–,+++,–
CN(C)CCc1c[nH]c2cccc(OC(=O)[C@H]3C[C@@H]3C(=O)Oc3cccc4[nH]cc(CCN(C)C)c34)c12 [drawing 54],–,95.5,–,–
CN(C)CCc1c[nH]c2cccc(OC(=O)c3ccccc3F)c12 [drawing 63],–,–,++,–
CN(C)CCc1c[nH]c2cccc(OC(=O)CCCC(=O)Oc3cccc4[nH]cc(CCN(C)C)c34)c12 [drawing 60],–,–,+++,–
CN(C)CCc1c[nH]c2cccc(OC(=O)c3ccccc3F)c12 [drawing 47],11.4,–,–,–
CN(C)CCc1c[nH]c2cccc(OC(=O)CCC(=O)Oc3cccc4[nH]cc(CCN(C)C)c34)c12 [drawing 57],–,–,+++,–
CN(C)CCc1c[nH]c2cccc(OC(=O)c3ccc(Br)cc3)c12 [drawing 58],–,–,++,–
CN(C)CCc1c[nH]c2cccc(OC(=O)c3ccccc3F)c12 [drawing 55],–,97.5,–,–
CN(C)CCc1c[nH]c2cccc(OC(=O)c3cccc(C(=O)Oc4cccc5[nH]cc(CCN(C)C)c45)c3)c12 [drawing 53],–,93.5,–,–
CN(C)CCc1c[nH]c2cccc(OC(=O)C(C)(C)C(=O)Oc3cccc4[nH]cc(CCN(C)C)c34)c12 [drawing 59],–,–,+++,–
CN(C)CCc1c[nH]c2cccc(OC(=O)C(C)(C)C(=O)Oc3cccc4[nH]cc(CCN(C)C)c34)c12 [drawing 43],86.8,–,–,–
CN(C)CCc1c[nH]c2cccc(OC(=O)CCC(=O)Oc3cccc4[nH]cc(CCN(C)C)c34)c12 [drawing 41],61.7,–,–,–
CN(C)CCc1c[nH]c2cccc(OC(=O)CCCC(=O)Oc3cccc4[nH]cc(CCN(C)C)c34)c12 [drawing 44],71.5,–,–,–
CN(C)CCc1c[nH]c2cccc(OC(=O)CCCC(=O)Oc3cccc4[nH]cc(CCN(C)C)c34)c12 [drawing 52],–,94.5,–,–
"CN(C)CCc1c[nH]c2cccc(OC(=O)CCCC(=O)Oc3cccc4[nH]cc(CCN(C)C)c34)c12 [Test Compound B, bis(3-(2-(dimethylamino)ethyl)-1H-indol-4-yl) glutarate]",–,–,–,"PK profile (absorption, elimination) ([3]; 3.0 mg/kg PO, in words): good PK profile as a psilocin prodrug; parent compound detected in plasma or brain samples ([3]; 3.0 mg/kg PO, in words): no parent compound was detected in any of the plasma or brain samples; concentration at 2 h [3, 5]: 0 ng/mL; psilocin detected after administration of test compound ([3]; plasma and brain, in words): psilocin was detected in quantifiable amounts"
CN(C)CCc1c[nH]c2cccc(OC(=O)[C@H]3C[C@@H]3C(=O)Oc3cccc4[nH]cc(CCN(C)C)c34)c12 [drawing 46],76.1,–,–,–
CN(C)CCc1c[nH]c2cccc(OC(=O)c3ccc(Br)cc3)c12 [drawing 42],9.1,–,–,–
CN(C)CCc1c[nH]c2cccc(OC(=O)CCC(=O)Oc3cccc4[nH]cc(CCN(C)C)c34)c12 [drawing 49],–,97.1,–,–

# — US20240158350A1, “ESTER ANALOGS OF PSILOCIN, PROCESSES FOR THE PREPARATION THEREOF, AND METHODS OF USE” (Invyxis, Inc., priority 2022, published 2024)
